Source: patent US9133167B2, “Antibacterial quinoline derivatives” (JANSSEN PHARMACEUTICA NV, priority 2012, dated 2015)
Values after ≈ are worked out from the molar mass of the structure shown. Where a name gives a salt, the structure may show the parent alone.

Assays:
[1] = tested on: Staphylococcus aureus (ATCC29213); assay: Microtitre plate assay, IC90 for bacterial growth, Staphylococcus aureus strain; type: cell-based; conditions: 90% inhibitory concentration for bacterial growth, 24 hours at 37° C.; for IC90: read-out: IC90 (μg/ml) STA B29213
Protocol: D.2. In-Vitro Method for Testing Compounds for Anti-Bacterial Activity Against a Non-Mycobacterial Strain
Preparation of Bacterial Suspensions for Susceptibility Testing:
The bacteria used in this study were grown overnight in flasks containing 100 ml Mueller-Hinton Broth (Becton Dickinson—cat. no. 275730) in sterile de-ionized water, with shaking, at 37° C. Stocks (0.5 ml/tube) were stored at −70° C. until use. Bacteria titrations were performed in microtiter plates to detect the TCID50, in which TCID50 represents the dilution that gives rise to bacterial growth in 50% of inoculated cultures. In general, an inoculum level of approximately 100 TCID50 was used for susceptibility testing.
Anti Bacterial Susceptibility Testing: IC90 Determination
Flat-bottom, sterile 96-well plastic microtiter plates were filled with 180 μl of sterile deionized water, supplemented with 0.25% BSA. Subsequently, stock solutions (7.8× final test concentration) of compounds were added in 45 μl volumes in column 2 Serial five-fold dilutions (45 μl in 180 μl) were made directly in the microtiter plates from column 2 to reach column 11. Untreated control samples with (column 1) and without (column 12) inoculum were included in each microtiter plate. Depending on the bacteria type, approximately 10 to 60 CFU per well of bacteria inoculum (100 TCID50), in a volume of 100 μl in 2.8× Mueller-Hinton broth medium, was added to the rows A to H, except column 12. The same volume of broth medium without inoculum was added to column 12 in row A to H. The cultures were incubated at 37° C. for 24 hours under a normal atmosphere (incubator with open air valve and continuous ventilation). At the end of incubation, one day after inoculation, the bacterial growth was quantitated fluorometrically. Therefore resazurin (0.6 mg/ml) was added in a volume of 20 μl to all wells 3 hours after inoculation, and the plates were re-incubated overnight. A change in colour from blue to pink indicated the growth of bacteria. The fluorescence was read in a computer-controlled fluorometer (Cytofluor Biosearch) at an excitation wavelength of 530 nm and an emission wavelength of 590 nm. The % growth inhibition achieved by the compounds was calculated according to standard methods. The IC90 (expressed in μg/ml) was defined as the 90% inhibitory concentration for bacterial growth. The results are shown in Table 7 for an assay using a Staphylococcus aureus strain.

[2] = tested on: Mycobacterium smegmatis (ATCC607); assay: In-vitro anti-bacterial activity against strain M. smegmatis ATCC607 (Alamar Blue growth inhibition); type: cell-based; conditions: 90% inhibitory concentration for bacterial growth, 48 hours at 37° C.; for IC90: Mycolicibacterium smegmatis, read-out: IC90 (μg/ml) MSM 607
Protocol: D.1. In-Vitro Method for Testing Compounds for Anti-Bacterial Activity Against Strain M. Smegmatis ATCC607.
Flat-bottom, sterile 96-well plastic microtiter plates were filled with 180 μl of sterile deionized water, supplemented with 0.25% BSA. Subsequently, stock solutions (7.8× final test concentration) of compounds were added in 45 μl volumes to a series of duplicate wells in column 2 so as to allow evaluation of their effects on bacterial growth. Serial five-fold dilutions (45 μl in 180 μl) were made directly in the microtiter plates from column 2 to 11 using a customised robot system (Zymark Corp., Hopkinton, Mass.). Pipette tips were changed after every 3 dilutions to minimize pipetting errors with high hydrophobic compounds. Untreated control samples with (column 1) and without (column 12) inoculum were included in each microtiter plate. Approximately 250 CFU per well of bacteria inoculum, in a volume of 100 in 2.8× Mueller-Hinton broth medium, was added to the rows A to H, except column 12. The same volume of broth medium without inoculum was added to column 12 in row A to H. The cultures were incubated at 37° C. for 48 hours in a humidified 5% CO2 atmosphere (incubator with open air valve and continuous ventilation). At the end of incubation, two days after inoculation, the bacterial growth was quantitated fluorometrically. Therefore Alamar Blue (10×) was added to all wells in a volume of 20 and plates were incubated for another 2 hours at […]
The fluorescence was read in a computer-controlled fluorometer (Cytofluor, Biosearch) at an excitation wavelength of 530 nm and an emission wavelength of 590 nm (gain 30). The percentage growth inhibition achieved by the compounds was calculated according to standard methods and expressed as IC90 […] which defines the 90% inhibitory concentration for bacterial growth.

Row | Compound | IC90 [1] | melting point | IC90 (μg/ml) STA B29213 [1] | IC90 (μg/ml) MSM 607 [2] | IC90 [2]
1 | COc1nc2ccc(Br)cc2cc1C(c1ccc(C#N)cc1)C1(O)CCN(Cc2ccccc2)CC1 (stereo not shown) [Compound 58] | 8.47 µg/mL (≈ 15.6 µM) | 220 °C | – | – | –
2 | O=c1[nH]c2ccc(Br)cc2cc1C(c1ccc2ccccc2c1)C1(O)CCN(Cc2ccccc2)CC1 (stereo not shown) [Compound 80] | 4.4 µg/mL (≈ 7.95 µM) | 249 °C | – | – | –
3 | C=Cc1ccc2nc(OC)c(C(c3ccc(Cl)cc3)C3(O)CCN(Cc4ccccc4)CC3)cc2c1 (stereo not shown) [Compound 11] | > 39.8 µg/mL | 195 °C | – | – | –
4 | COc1nc2ccc(Br)cc2cc1C(c1ccc(Cl)cc1)C1(O)CCN(Cc2ccccc2C)CC1 (stereo not shown) [Compound 62] | – | – | 15.85 µg/mL (≈ 28 µM) | 3.16 µg/mL (≈ 5.58 µM) | –
5 | COc1nc2ccc(C#N)cc2cc1C(c1ccc(Cl)cc1)C1(O)CCN(Cc2ccccc2)CC1 (stereo not shown) [Compound 13] | 25.6 µg/mL (≈ 51.3 µM) | 199 °C | – | – | –
6 | COc1nc2ccc(Cl)cc2cc1C(c1ccc(Br)cc1)C1(O)CCN(Cc2ccccc2)CC1 (stereo not shown) [Compound 88] | – | – | 3.98 µg/mL (≈ 7.21 µM) | 3.16 µg/mL (≈ 5.73 µM) | –
7 | COc1nc2ccc(C(C)C)cc2cc1C(c1ccc(Cl)cc1)C1(O)CCN(CCc2ccccc2)CC1.O=C(O)/C=C/C(=O)O (racemic) [Compound 91] | – | – | 3.16 µg/mL | 0.63 µg/mL | –
8 | COc1nc2ccc(Br)cc2cc1C(c1ccc(Cl)cc1)C1(O)CCN(Cc2ccccc2)CC1 (stereo not shown) [Compound 6] | > 13.9 µg/mL | – | – | – | > 13.9 µg/mL
9 | COc1nc2ccc(Br)cc2cc1C(c1ccc(S(C)(=O)=O)cc1)C1(O)CCN(Cc2ccccc2)CC1 (stereo not shown) [Compound 20] | 7.5 µg/mL (≈ 12.6 µM) | – | – | – | 3.76 µg/mL (≈ 6.31 µM)
10 | COc1nc2ccc(Br)cc2cc1C(c1cccc(C)c1)C1(O)CCN(Cc2ccccc2)CC1 (stereo not shown) [Compound 61] | – | – | 15.85 µg/mL (≈ 29.8 µM) | 3.16 µg/mL (≈ 5.95 µM) | –
11 | COc1nc2ccc(Br)cc2cc1C(c1ccc(S(C)(=O)=O)cc1)C1(O)CCNCC1 (stereo not shown) [Compound 19] | > 16.1 µg/mL | – | – | – | > 16.1 µg/mL
12 | COc1nc2ccc(-c3cccnc3)cc2cc1C(c1ccc(Cl)cc1)C1(O)CCN(C)CC1 (racemic) [Compound 94] | – | – | 14.99 µg/mL (≈ 31.6 µM) | 6.70 µg/mL (≈ 14.1 µM) | –

More lines, now with the values ahead:

Row | IC90 [1] | melting point | IC90 (μg/ml) STA B29213 [1] | IC90 (μg/ml) MSM 607 [2] | IC90 [2] | Compound
13 | – | – | >13.67 µg/mL | >13.67 µg/mL | – | COc1nc2ccc(C(=O)N(C)C)cc2cc1C(c1ccc(Cl)cc1)C1(O)CCN(Cc2ccccc2)CC1 (stereo not shown) [Compound 108]
14 | – | – | 14.58 µg/mL | 11.58 µg/mL | – | CCn1c(=O)c(C(c2ccc(Cl)cc2)C2(O)CCNCC2)cc2cc(Br)ccc21.O=C(O)/C=C/C(=O)O (stereo not shown) [Compound 102]
15 | – | > 260 °C | – | – | – | CS(=O)(=O)c1ccc2[nH]c(=O)c(C(c3ccccc3)C3(O)CCNCC3)cc2c1 (stereo not shown) (as salt: HCl) [Compound 100]
16 | > 11.3 µg/mL | – | – | – | > 11.3 µg/mL | CS(=O)(=O)c1ccc2[nH]c(=O)c(C(c3ccccc3)C3(O)CCNCC3)cc2c1 (stereo not shown) [Compound 100]
17 | – | – | 13.86 µg/mL (≈ 25.1 µM) | 6.19 µg/mL (≈ 11.2 µM) | – | Cn1c(=O)c(C(c2ccc(Cl)cc2)C2(O)CCN(Cc3ccccc3)CC2)cc2cc(Br)ccc21 (stereo not shown) [Compound 96]
18 | – | – | 16.25 µg/mL | 4.08 µg/mL | – | COc1nc2ccc(-c3cccnc3)cc2cc1C(c1ccccc1Cl)C1(O)CCNCC1.O=C(O)/C=C/C(=O)O (racemic) [Compound 97]
19 | – | – | >12.04 µg/mL | 12.04 µg/mL | – | Cl.O=c1[nH]c2ccc(Br)cc2cc1C(c1cccc(Cl)c1)C1(O)CCNCC1 (stereo not shown) [Compound 101]
20 | – | – | >12.96 µg/mL | 12.96 µg/mL (≈ 25.1 µM) | – | COc1nc2ccc(C(N)=O)cc2cc1C(c1ccc(Cl)cc1)C1(O)CCN(Cc2ccccc2)CC1 (stereo not shown) [Compound 107]
21 | – | – | >13.31 µg/mL | >13.31 µg/mL | – | COc1nc2ccc(S(C)(=O)=O)cc2cc1C(c1ccccc1)C1(O)CCNCC1.O=C(O)/C=C/C(=O)O (racemic) [Compound 99]
22 | – | – | >11.93 µg/mL | >11.93 µg/mL | – | Cl.N#Cc1ccc(C(c2cc3cc(Br)ccc3[nH]c2=O)C2(O)CCNCC2)cc1 (stereo not shown) [Compound 103]
